Target: T1, mAChR hM4 (Homo sapiens, UniProt P08173)
T1 construct: expressed in transfected cells; host or cells: CHO-K1 (Chinese hamster ovary) cells
T1 sequence (P08173 1-479): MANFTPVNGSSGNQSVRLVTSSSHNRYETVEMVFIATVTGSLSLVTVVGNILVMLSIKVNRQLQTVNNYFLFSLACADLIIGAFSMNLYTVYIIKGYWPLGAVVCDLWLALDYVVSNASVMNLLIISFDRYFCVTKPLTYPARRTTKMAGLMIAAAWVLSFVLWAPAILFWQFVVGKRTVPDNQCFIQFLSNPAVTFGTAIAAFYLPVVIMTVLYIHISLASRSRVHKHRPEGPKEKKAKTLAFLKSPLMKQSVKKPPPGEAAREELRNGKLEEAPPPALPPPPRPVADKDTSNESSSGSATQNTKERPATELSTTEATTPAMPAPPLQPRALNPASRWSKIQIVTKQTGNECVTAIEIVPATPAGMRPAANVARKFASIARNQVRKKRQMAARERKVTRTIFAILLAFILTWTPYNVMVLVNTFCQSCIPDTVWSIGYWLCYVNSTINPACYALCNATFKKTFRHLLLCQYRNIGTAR
Experiment: mAChR M4 cell-based functional assay (calcium flux, potentiation of EC20 acetylcholine response)
Settings: mAChR hM4 cell-line; for EC50: >10,000 estimated for low potency compounds lacking a plateau; for Emax at 30 µM: % ACh maximum at 30 μM
Excerpt: In one aspect, the disclosed compounds potentiate the agonist response (e.g., acetylcholine) of mAChR M4. In a further aspect, the disclosed compounds increase mAChR M4 response to non-maximal concentrations of agonist in the presence of compound compared to the response to agonist in the absence of compound. […] For example, activation of mAChR M4 activity can be determined by measurement of calcium flux in response to agonist, e.g. acetylcholine, in cells loaded with a Ca^2+-sensitive fluorescent dye (e.g., Fluo-4). In a further aspect, the calcium flux was measured as an increase in fluorescent static ratio. In a yet further aspect, positive allosteric modulator activity was analyzed as a concentration-dependent increase in the EC20 acetylcholine response (i.e. the response of mAChR M4 at a concentration of acetylcholine that yields 20% of the maximal response).
In one aspect, the disclosed compounds activate mAChR M4 response as an increase in calcium fluorescence in mAChR M4-transfected CHO-K1 cells in the presence of the compound, compared to the response of equivalent CHO-K1 cells in the absence of the compound. […] In a further aspect, the mAChR M4-transfected CHO-K1 cells are transfected with human mAChR M4. In a still further aspect, the mAChR M4-transfected CHO-K1 cells are transfected with rat mAChR M4.
Substituted 3-aminothieno[2,3-c]pyridine-2-carboxamide analogs were synthesized as described above. Activity (EC50 and Emax) was determined in the mAChR M4 cell-based functional assay as described above, and the data are shown in Table II for assays conducted using mAChR hM4 cell-line. The compound number corresponds to the compound numbers used in Table I.

Compound	EC50 [µM]	Emax at 30 µM [%]
Cc1cc(C)c2c(-c3cnn(C)c3)c(C(=O)N3CCC(c4ccccc4)C3)sc2n1 (stereo not drawn) [Compound 67, (4,6-dimethyl-3-(1-methyl-1H-pyrazol-4-yl)thieno[2,3-b]pyridin-2-yl)(3-phenylpyrrolidin-1-yl)methanone]	> 10	–
COc1ccc(CNC(=O)c2sc3nc(C)c(Cl)c(C)c3c2C2CC2)cc1F [Compound 69, 5-chloro-3-cyclopropyl-N-(3-fluoro-4-methoxybenzyl)-4,6-dimethylthieno[2,3-b]pyridine-2-carboxamide]	> 10	–
Cc1cc(C)c2c(-c3cnn(C)c3)c(C(=O)NCc3cnn(-c4ccccc4)c3)sc2n1 [Compound 71, 4,6-dimethyl-3-(1-methyl-1H-pyrazol-4-yl)-N-((1-phenyl-1H-pyrazol-4-yl)methyl)thieno[2,3-b]pyridine-2-carboxamide]	> 10	–
Cc1nc2sc(C(=O)N3CC(c4ccccc4)C3)c(C3CC3)c2c(C)c1Cl [Compound 72, (5-chloro-3-cyclopropyl-4,6-dimethylthieno[2,3-b]pyridin-2-yl)(3-phenylazetidin-1-yl)methanone]	> 10	–
Cc1nc2sc(C(=O)NCc3cnn(-c4ccccc4)c3)c(C3CC3)c2c(C)c1Cl [Compound 73, 5-chloro-3-cyclopropyl-4,6-dimethyl-N-((1-phenyl-1H-pyrazol-4-yl)methyl)thieno[2,3-b]pyridine-2-carboxamide]	> 10	–
Cc1cc(C)c2cc(C(=O)NC3COC3)sc2n1 [Compound 74, 4,6-dimethyl-N-(oxetan-3-yl)thieno[2,3-b]pyridine-2-carboxamide]	> 10	46
Cc1cc(C)c2cc(C(=O)NC3CN(c4cccnc4)C3)sc2n1 [Compound 75, 4,6-dimethyl-N-(1-(pyridin-3-yl)azetidin-3-yl)thieno[2,3-b]pyridine-2-carboxamide]	1.2	67
Cc1cc(C)c2cc(C(=O)NC3CN(c4ccc(C(F)(F)F)nc4)C3)sc2n1 [Compound 76, 4,6-dimethyl-N-(1-(6-(trifluoromethyl)pyridin-3-yl)azetidin-3-yl)thieno[2,3-b]pyridine-2-carboxamide]	> 10	–
Cc1cc(C)c2cc(C(=O)NCc3cnn(-c4ccccc4)c3)sc2n1 [Compound 77, 4,6-dimethyl-N-((1-phenyl-1H-pyrazol-4-yl)methyl)thieno[2,3-b]pyridine-2-carboxamide]	> 10	–
Cc1cc(C)c2cc(C(=O)NCc3ccc(-c4cccnc4F)cc3)sc2n1 [Compound 78, N-(4-(2-fluoropyridin-3-yl)benzyl)-4,6-dimethylthieno[2,3-b]pyridine-2-carboxamide]	> 10	34
Cc1cc(C)c2cc(C(=O)NCc3ccc(-c4ccnnc4)s3)sc2n1 [Compound 79, 4,6-dimethyl-N-((5-(pyridazin-4-yl)thiophen-2-yl)methyl)thieno[2,3-b]pyridine-2-carboxamide]	> 10	–
Cc1cc(C)c2cc(C(=O)NCC3CCN(c4ccccc4)C3)sc2n1 (stereo not drawn) [Compound 80, 4,6-dimethyl-N-((1-phenylpyrrolidin-3-yl)methyl)thieno[2,3-b]pyridine-2-carboxamide]	> 10	–
COc1ccc(C2CC2NC(=O)c2cc3c(C)cc(C)nc3s2)cc1 (stereo not drawn) [Compound 81, N-(2-(4-methoxyphenyl)cyclopropyl)-4,6-dimethylthieno[2,3-b]pyridine-2-carboxamide]	0.82	30
Cc1cc(C)c2cc(C(=O)N3CC(c4ccccc4)C3)sc2n1 [Compound 82, (4,6-dimethylthieno[2,3-b]pyridin-2-yl)(3-phenylazetidin-1-yl)methanone]	2.4	34
Cc1cc(C)c2cc(C(=O)N3CCC(c4ccccc4)C3)sc2n1 (stereo not drawn) [Compound 83, (4,6-dimethylthieno[2,3-b]pyridin-2-yl)(3-phenylpyrrolidin-1-yl)methanone]	> 10	–
COc1ccc(CNC(=O)c2cc3c(C)cc(C)nc3s2)cc1F [Compound 84, N-(3-fluoro-4-methoxybenzyl)-4,6-dimethylthieno[2,3-b]pyridine-2-carboxamide]	6.7	49
Cc1cc(C)c2cc(C(=O)NCc3ccc(S(=O)(=O)C(F)(F)F)cc3)sc2n1 [Compound 85, 4,6-dimethyl-N-(4-((trifluoromethyl)sulfonyl)benzyl)thieno[2,3-b]pyridine-2-carboxamide]	> 10	–

The next lines start with the values.

EC50 [µM]	Emax at 30 µM [%]	Compound
> 10	–	COc1ccc(CNC(=O)c2sc3nc(C)cc(C)c3c2-c2cnn(C)c2)cc1F [Compound 66, N-(3-fluoro-4-methoxybenzyl)-4,6-dimethyl-3-(1-methyl-1H-pyrazol-4-yl)thieno[2,3-b]pyridine-2-carboxamide]
> 10	–	COc1ccc(C2CC2NC(=O)c2sc3nc(C)cc(C)c3c2-c2cnn(C)c2)cc1 (stereo not drawn) [Compound 68, N-(2-(4-methoxyphenyl)cyclopropyl)-4,6-dimethyl-3-(1-methyl-1H-pyrazol-4-yl)thieno[2,3-b]pyridine-2-carboxamide]
> 10	–	Cc1cc(C)c2c(-c3cnn(C)c3)c(C(=O)NCc3ccc4c(c3)CCO4)sc2n1 [Compound 70, N-((2,3-dihydrobenzofuran-5-yl)methyl)-4,6-dimethyl-3-(1-methyl-1H-pyrazol-4-yl)thieno[2,3-b]pyridine-2-carboxamide]
> 10	–	Cc1nc2sc(C(=O)N3CCC(c4ccccc4)C3)c(-c3cnn(C)c3)c2c(C)c1Cl (stereo not drawn) [Compound 86, (5-chloro-4,6-dimethyl-3-(1-methyl-1H-pyrazol-4-yl)thieno[2,3-b]pyridin-2-yl)(3-phenylpyrrolidin-1-yl)methanone]
> 10	–	Cc1nc2sc(C(=O)NC3CCC3)c(-c3cnn(C)c3)c2c(C)c1Cl [Compound 87, 5-chloro-N-cyclobutyl-4,6-dimethyl-3-(1-methyl-1H-pyrazol-4-yl)thieno[2,3-b]pyridine-2-carboxamide]
> 10	–	Cc1nc2sc(C(=O)NC3CCCOC3)c(-c3cnn(C)c3)c2c(C)c1Cl (stereo not drawn) [Compound 88, 5-chloro-4,6-dimethyl-3-(1-methyl-1H-pyrazol-4-yl)-N-(tetrahydro-2H-pyran-3-yl)thieno[2,3-b]pyridine-2-carboxamide]
> 10	–	Cc1nc2sc(C(=O)NC3CCS(=O)(=O)C3)c(-c3cnn(C)c3)c2c(C)c1Cl (stereo not drawn) [Compound 89, 5-chloro-N-(1,1-dioxidotetrahydrothiophen-3-yl)-4,6-dimethyl-3-(1-methyl-1H-pyrazol-4-yl)thieno[2,3-b]pyridine-2-carboxamide]
> 10	–	Cc1nc2sc(C(=O)NC3CC3)c(-c3cnn(C)c3)c2c(C)c1Cl [Compound 90, 5-chloro-N-cyclopropyl-4,6-dimethyl-3-(1-methyl-1H-pyrazol-4-yl)thieno[2,3-b]pyridine-2-carboxamide]
> 10	–	Cc1nc2sc(C(=O)NC3CCOC3)c(-c3cnn(C)c3)c2c(C)c1Cl (stereo not drawn) [Compound 91, 5-chloro-4,6-dimethyl-3-(1-methyl-1H-pyrazol-4-yl)-N-(tetrahydrofuran-3-yl)thieno[2,3-b]pyridine-2-carboxamide]
> 10	–	Cc1nc2sc(C(=O)NC3CN(c4cccnc4)C3)c(-c3cnn(C)c3)c2c(C)c1Cl [Compound 92, 5-chloro-4,6-dimethyl-3-(1-methyl-1H-pyrazol-4-yl)-N-(1-(pyridin-3-yl)azetidin-3-yl)thieno[2,3-b]pyridine-2-carboxamide]
> 10	–	Cc1nc2sc(C(=O)NC3C4CC5CC(C4)CC3C5)c(-c3cnn(C)c3)c2c(C)c1Cl (stereo not drawn) [Compound 93, N-(adamantan-2-yl)-5-chloro-4,6-dimethyl-3-(1-methyl-1H-pyrazol-4-yl)thieno[2,3-b]pyridine-2-carboxamide]
> 10	–	Cc1nc2sc(C(=O)NC3[C@H]4C[C@H]3C4)c(-c3cnn(C)c3)c2c(C)c1Cl (stereo partly drawn) [Compound 94, N-((1R,3S)-bicyclo[1.1.1]pentan-2-yl)-5-chloro-4,6-dimethyl-3-(1-methyl-1H-pyrazol-4-yl)thieno[2,3-b]pyridine-2-carboxamide]
> 10	–	Cc1nc2sc(C(=O)NCc3ccc(S(=O)(=O)C(F)(F)F)cc3)c(-c3cnn(C)c3)c2c(C)c1Cl [Compound 95, 5-chloro-4,6-dimethyl-3-(1-methyl-1H-pyrazol-4-yl)-N-(4-((trifluoromethyl)sulfonyl)benzyl)thieno[2,3-b]pyridine-2-carboxamide]
